GI50 and TGI data for eleven molecules are collected here from PubChem BioAssay (NCI).

Assay in all cases: DTP human tumour cell line panel, 48 h
Assay [1] deals with NCI/ADR-RES ovarian.
In assay [2] the test system is SNB-19 CNS.
For assay [3], the system named is NCI-H226 lung.
Assay [4] has as its system UO-31 renal.
The subject of assay [5] is SF-268 CNS.
For assay [6], the system named is ACHN renal.
The test system of assay [7] is OVCAR-3 ovarian.
The subject of assay [8] is MCF7 breast.

Several values for one entry are separate records, joined by “and”; a condition that tells them apart may be missing. Identical values can stand only once.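 Five compound concentrations were applied to cells in 96-well plates for 48 hours; endpoints were derived by simple linear interpolation of the resulting dose-response curve. Here, GI50 denotes the concentration required for 50% inhibition of growth. TGI: concentration producing complete growth inhibition.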 Bounds are passed on as bounds.

For the molecule `COc1ccc(Cn2cc3c(c2)-c2oncc2CC3)cc1`, the GI50 is 2.86 µM in assay [1]; 9.05 µM in assay [2]; 16 µM in assay [3]; 5.16 µM in assay [4]; 8.19 µM in assay [5]; 11.6 µM in assay [6]. The GI50 in assay [7] was 2.61 µM; in assay [8] it was 3.07 µM. For the same molecule, the TGI in assay [1] was 9.85 µM; in assay [2], over 100 µM; in assay [3] it was over 100 µM; in assay [4] it was over 90.7 µM; in assay [5], over 100 µM; in assay [6], over 100 µM. In addition, the TGI was 6.51 µM in assay [7] and over 100 µM in assay [8].
Turning to `Cn1c2c(c3ccc(Cl)c(Cl)c31)C(C#N)C1(CCNCC1)NC2=O` (stereo not given), the GI50 in assay [1] is 3.72 µM; in assay [2] it was 3.1 µM; in assay [3] it was 2.24 µM; in assay [4] it was 1.23 µM; in assay [5], 1.77 µM; in assay [6], 1.82 µM. In addition, the GI50 in assay [7] was 1.42 µM; in assay [8], 1.45 µM. In addition, the TGI in assay [1] stood at 12.2 µM; in assay [2], 13 µM; in assay [3] it was 12.7 µM; in assay [4], 4.46 µM; in assay [5], 4.89 µM; in assay [6], 5.79 µM. The TGI is 2.9 µM in assay [7] and 3.01 µM in assay [8].
In the case of `COc1ccc(-c2oc3c(OC)c(OC)c(OC)c(OC)c3c(=O)c2OC)cc1OC`, the TGI in assay [1] is 74 µM; in assay [2], over 100 µM; in assay [3] it was over 100 µM; in assay [4], over 100 µM; in assay [5], 35.2 µM; in assay [6] it was over 100 µM. For the same molecule, the results for the TGI in assay [7] and in assay [8] were 54.4 µM and over 100 µM, respectively.
Consider `Cc1ccc(-c2csc(NC(=O)CN3CCN(c4cc5c(cc4F)c(=O)c(C(=O)O)cn5C4CC4)CC3)n2)cc1`, for which the GI50 in assay [1] is 3.06 µM; in assay [2], 0.87 µM; in assay [3], 2.51 µM; in assay [4], 1.04 µM; in assay [5], 0.493 µM; in assay [6], 2.58 µM. Also, the figures for the GI50 in assay [7] and in assay [8] were 0.457 µM and 0.638 µM, respectively. Besides, the TGI is 34 µM in assay [1]; 27 µM in assay [2]; 9.41 µM in assay [3]; 41.1 µM in assay [4]; over 100 µM in assay [5]; 14.3 µM in assay [6]. Besides, the figures for the TGI in assay [7] and in assay [8] were 15.7 µM and over 100 µM, respectively.
For the molecule `O=c1cccc(C2CC(CO)C3CCCCN3C2)[nH]1` (stereo not given), the total growth inhibition concentration (TGI) in assay [1], in assay [2], in assay [3], in assay [4], in assay [5] and in assay [6] was over 100 µM in each case. The TGI in assay [7] and in assay [8] was over 100 µM each time.
For `COc1ccccc1/C=C/C(=O)c1ccccc1`, the GI50 in assay [1] was 5.75 µM; in assay [2], 12.7 µM; in assay [3] it was 13.3 µM; in assay [4] it was 4.69 µM; in assay [5], 13.1 µM; in assay [6], 5.04 µM. The GI50 in assay [7] is 5.92 µM; in assay [8], 1.56 µM. Further, the TGI in assay [1] was over 38.2 µM; in assay [2], 26.4 µM; in assay [3] it was 33.1 µM; in assay [4], 17.9 µM; in assay [5] it was 27 µM; in assay [6] it was 15.2 µM. Further, the TGI was 15.2 µM in assay [7] and 10.2 µM in assay [8].
Turning to `COc1cc2ncnc(Nc3ccc(F)c(Cl)c3)c2cc1NC(=O)/C=C/CN1CCCCC1`, the GI50 is 1.48 µM and 1.12 µM in assay [1]; 2.04 µM and 1.86 µM in assay [2]; 2.91 µM and 4.52 µM in assay [3]; 1.5 µM and 1.42 µM in assay [5]; < 0.01 µM and 0.00256 µM in assay [6]; 1.14 µM and 1.21 µM in assay [7]. Further, the GI50 in assay [8] was 2 µM and 2.03 µM. Moreover, the TGI in assay [1] was 7.15 µM and 6.37 µM; in assay [2] it was 17 µM and > 10 µM; in assay [3], 19.3 µM and > 10 µM; in assay [4], 2.23 µM and 1.99 µM; in assay [5], 3.99 µM and 4.73 µM; in assay [6], 1.76 µM and 1.48 µM. The TGI is 2.45 µM and 3.24 µM in assay [7]; 6.32 µM and 6.56 µM in assay [8].
Consider `NC(N)=NCCC1OC(=O)C2=C1c1c(O)ccc3nccc(c13)O2` (stereo not given), for which the GI50 is over 100 µM in assay [1]; 50.5 µM in assay [2]; 89.9 µM in assay [3]; over 100 µM in assay [4]; 23.8 µM in assay [5]; over 100 µM in assay [6]. The GI50 in assay [7] and in assay [8] was over 100 µM in each case. Moreover, the TGI in assay [1], in assay [2], in assay [3], in assay [4], in assay [5] and in assay [6] was over 100 µM in each case. The TGI in assay [7] and in assay [8] was over 100 µM throughout.
For `CCCOc1ccc2nc(NC(=O)OC)[nH]c2c1`, the 50% growth inhibitory concentration (GI50) was 0.244 µM in assay [1]; 0.384 µM in assay [2]; 0.399 µM in assay [3]; 0.501 µM in assay [4]; 2.43 µM in assay [5]; 1.2 µM in assay [6]. In addition, the GI50 is 0.396 µM in assay [7] and 0.239 µM in assay [8]. Moreover, the TGI in assay [1], in assay [2], in assay [4], in assay [5], in assay [6] and in assay [7] was over 100 µM throughout. For the same molecule, the concentration for total growth inhibition (TGI) in assay [8] was over 100 µM.
Regarding `CC(CCC(=O)O)C(=O)O` (stereo not given), the TGI in assay [1], in assay [2], in assay [3], in assay [4], in assay [5] and in assay [6] was over 100 µM in each case. For the same molecule, the TGI in assay [7] and in assay [8] was over 100 µM in each case.
As to `CN1C(=O)N(C)C2C1NN=c1s/c(=C\c3ccc(F)cc3)c(=O)n12` (stereo not given), the GI50 in assay [1] was 1.94 µM; in assay [2] it was 5.57 µM; in assay [3] it was 8.02 µM; in assay [4], 3.9 µM; in assay [5], 4.62 µM; in assay [6], 4.39 µM. Further, the GI50 in assay [7] was 1.24 µM; in assay [8] it was 0.673 µM. In addition, the TGI in assay [1], in assay [2], in assay [3], in assay [4], in assay [5] and in assay [6] was over 100 µM each time. Moreover, the TGI in assay [7] was 8.09 µM; in assay [8], over 100 µM.

The GI50 is the concentration that inhibits growth by half. One may read the TGI as the concentration giving total growth inhibition. Lower therefore signals more potent growth arrest.
